Results from patent US20220388919A1, “UREA-BASED BLEND COMPOSITION AND METHOD FOR THE MANUFACTURE THEREOF” (Yara International ASA, priority 2019, published 2022).

Test: nBTPT recovered after storage in bags (HPLC, CEN 15688-2007)
Format: physicochemical
Conditions: bagged conditions without the presence of a head space (exclusion of moisture and atmospheric gasses)
Experimental: For lab scale experiments, 1.2 kg of solid UAS fertilizer material was added to a lab scale drum. In a next step, the nBTPT/stabilizer material was slowly added. A residence time of 10 minutes was applied, and the rotating speed of the drum was consequently the same in each experiment. In case a moisture-repellent coating was added, a nebulizer was used and depending on the order of addition, the moisture-repellent coating was added before or after addition of the nBTPT material. Before use, the moisture-repellent coating was preheated to 80° C. Larger scale experiments with amounts up to 40 kg of fertilizer material were performed in a concrete mixer.
Optionally, a zinc sulphate, anhydrous zinc sulphate or monohydrate zinc sulphate, was coated on the particles (0.46 weight %). […] Product samples were taken at different times from a bag and the amount of nBTPT still present was measured by HPLC according to the procedure CEN 15688-2007, the results are presented in FIG. 1. […]
Urea particles containing 46 weight % of nitrogen was coated with 0.046 weight % of nBTPT, as urease inhibitor, and an inorganic stabilizer, magnesium oxide (0.023 weight %). […] Product samples were taken at different times and the amount of nBTPT still present was measured by HPLC according to the procedure CEN 15688-2007, the results are presented in FIG. 5. […]

Q: With CCCCNP(N)(N)=S [nBTPT, N-(n-butyl) thiophosphoric triamide] as the molecule, how does the “stability of the urease inhibitor” value read?
A: The value was “further increased”.
